Reference: US8901037B2, “Composition having a germination-preventing activity, processes for obtaining said compositions and use thereof” (Isagro S.p.A., priority 2006, dated 2014)

Tests used:
weeds = experiment: germination-preventing action in treated soil; type: in vivo; details: minimum amounts of 4 g per square meter of soil
[1] = cited from earlier work

| Compound | germination-preventing action (weeds) | vapour pressure at 25° C. [1] |
| --- | --- | --- |
| C=CCN=C=S [allyl isothiocyanate, Allyl isothiocyanate] | marked germination-preventing action | 5 mmHg |
| CN=C=S [methyl isothiocyanate, reference compound] | – | 19 mmHg |
